Experiments:
[1] = Lipid nanoparticle surface hydrophobicity by Generalized Polarization by Laurdan (N-GP); type: physicochemical; conditions: for Lipid nanoparticle surface hydrophobicity (N-GP*): Table 2a, Laurdan, higher N-GP indicates a less polar surface; for LNP surface hydrophobicity (N-GP*): Table 2b, nanoparticles comprising the lipid
From the text: Surface hydrophobicity of nanoparticles of the disclosure can be measured by Generalized Polarization by Laurdan (GPL). In this method, Laurdan, a fluorescent aminonaphthalene ketone lipid, is post-inserted into the nanoparticle surface and the fluorescence spectrum of Laurdan is collected to determine the normalized Generalized Polarization (N-GP). In some embodiments, nanoparticles formulated with lipids of the disclosure have a surface hydrophobicity expressed as N-GP of between about 0.5 and about 1.5. For example, in some embodiments, nanoparticles formulated with lipids of the disclosure have a surface hydrophobicity expressed as N-GP of about 0.5, about 0.6, about 0.7, about 0.8, about 0.9, about 1.0, about 1.1, about 1.2, about 1.3, about 1.4, or about 1.5. In some embodiments, nanoparticles formulated with lipids of the disclosure have a surface hydrophobicity expressed as N-GP of about 1.0 or about 1.1.

[2] = Particle size (diameter) and polydispersity index of lipid nanoparticles; type: physicochemical; conditions: nanoparticles comprising the lipid
Experimental: A Zetasizer Nano ZS (Malvern Instruments Ltd, Malvern, Worcestershire, UK) can be used to determine the particle size, the polydispersity index (PDI) and the zeta potential of the nanoparticle compositions in 1×PBS in determining particle size and 15 mM PBS in determining zeta potential.
Lipid nanoparticles (e.g., empty LNPs or loaded LNPs) may be characterized by a variety of methods. For example, microscopy (e.g., transmission electron microscopy or scanning electron microscopy) may be used to examine the morphology and size distribution of a nanoparticle composition. Dynamic light scattering or potentiometry (e.g., potentiometric titrations) may be used to measure zeta potentials. Dynamic light scattering may also be utilized to determine particle sizes. Instruments such as the Zetasizer Nano ZS (Malvern Instruments Ltd, Malvern, Worcestershire, UK) may also be used to measure multiple characteristics of a nanoparticle composition, such as particle size, polydispersity index, and zeta potential.
(§1) Lipid nanoparticles (e.g., empty LNPs or loaded LNPs) including DSPC as a phospholipid, cholesterol as a structural lipid, PL-II (e.g., PEG-1) as a PEG lipid, and a lipid according to Formula (I-1), (I), (I-A), (I-A1), (I-A2), (I-A3), or (I-A4) were prepared. In some embodiments, the lipid nanoparticles further included rhodamine-DOPE as a fluorescent lipid. Tables 2a, 2b, and 3 summarize the characteristics of the formulations.

[3] = Encapsulation efficiency (% EE) of lipid nanoparticles; type: physicochemical; conditions: nanoparticles comprising the lipid
Experimental: For nanoparticle compositions including an RNA, a QUANT-IT™ RIBOGREEN® RNA assay (Invitrogen Corporation Carlsbad, CA) can be used to evaluate the encapsulation of an RNA by the nanoparticle composition. The samples are diluted to a concentration of approximately 5 μg/mL in a TE buffer solution (10 mM Tris-HCl, 1 mM EDTA, pH 7.5). 50 μL of the diluted samples are transferred to a polystyrene 96 well plate and either 50 μL of TE buffer or 50 μL of a 2% Triton X-100 solution is added to the wells. The plate is incubated at a temperature of 37° C. for 15 minutes. The RIBOGREEN® reagent is diluted 1:100 in TE buffer, and 100 μL of this solution is added to each well. The fluorescence intensity can be measured using a fluorescence plate reader (Wallac Victor 1420 Multilablel Counter; Perkin Elmer, Waltham, MA) at an excitation wavelength of, for example, about 480 nm and an emission wavelength of, for example, about 520 nm. The fluorescence values of the reagent blank are subtracted from that of each of the samples and the percentage of free RNA is determined by dividing the fluorescence intensity of the intact sample (without addition of Triton X-100) by the fluorescence value of the disrupted sample (caused by the addition of Triton X-100).
The efficiency of encapsulation of a therapeutic and/or prophylactic describes the amount of therapeutic and/or prophylactic that is encapsulated or otherwise associated with a lipid nanoparticle (e.g., an empty LNP or a loaded LNP) after preparation, relative to the initial amount provided. The encapsulation efficiency is desired to be high (e.g., close to 100%). The encapsulation efficiency may be measured, for example, by comparing the amount of therapeutic and/or prophylactic in a solution containing a loaded LNP before and after breaking up the loaded LNP with one or more organic solvents or detergents. Fluorescence may be used to measure the amount of free therapeutic and/or prophylactic (e.g., RNA) in a solution. For the loaded LNPs formulated with lipids of the disclosure, the encapsulation efficiency of a therapeutic and/or prophylactic is at least 50%, for example 50%, 55%, 60%, 65%, 70%, 75%, 80%, 85%, 90%, 91%, 92%, 93%, 94%, 95%, 96%, 97%, 98%, 99%, or 100%. In some embodiments, the encapsulation efficiency is at least 80%. In some embodiments, the encapsulation efficiency is at least 90%. In some embodiments, the encapsulation efficiency of the therapeutic and/or prophylactic agent is between 80% and 100%.
as §1

[4] = Apparent pKa of lipid nanoparticles; type: physicochemical; conditions: for Apparent pKa: Table 2a, nanoparticles comprising the lipid; for Apparent pKa 95% CI: Table 2b, 95% confidence interval
CD-1 mice = assay: Expression of hEPO induced by LNPs (mRNA encoding hEPO) administered to mice; type: in vivo; conditions: Table 4a, serum, 6 h after intravenous injection; for Avg. hEPO Concentration (mIU/mL)* ± Avg. SD: ELLA Simple Plex Assay
Experimental: In some embodiments, hEPO concentrations were determined using an […] (ELLA) Simple Plex Assay (ProteinSimple) with a Human Erythroprotein cartridge. Standards for this assay are calibrated according to the 2. IRP WHO preparation. Nanoparticle compositions including mRNA are useful in the evaluation of the efficacy and usefulness of various formulations for the delivery of therapeutic and/or prophylactics. Higher levels of protein expression induced by administration of a composition including an mRNA will be indicative of higher mRNA translation and/or nanoparticle composition mRNA delivery efficiencies. As the non-RNA components are not thought to affect translational machineries themselves, a higher level of protein expression is likely indicative of a higher efficiency of delivery of the therapeutic and/or prophylactic by a given nanoparticle composition relative to other nanoparticle compositions or the absence thereof.
To assess potency of expression of lipids of the disclosure, the protein expression (hEPO) following administration of a nanoparticle comprising a lipid of the disclosure (e.g., a loaded LNP) to mice was measured.
Lipid nanoparticles (LNPs) including DSPC as a phospholipid, cholesterol as a structural lipid, PL-II (e.g., PEG-1) as a PEG lipid, a lipid according to Formula (I-1), (I), (I-A), (I-A1), (I-A2), (I-A3), or (I-A4), and an mRNA encoding hEPO were intravenously administered to CD-1 mice. The concentration of hEPO in serum was tested at 6 h after injection.

[5] = Table 2a, DSPC, cholesterol, PEG lipid

Lipid nanoparticle surface hydrophobicity (N-GP*) [1]	PDI ([2]; Table 2a)	Diameter (nm) [2, 5] [nm]	Diameter (nm) ([2]; Table 3)	PDI ([2]; Table 3)	% EE ([3]; Table 2a) [%]	% EE ([3]; Table 3) [%]	Apparent pKa [4]	LNP surface hydrophobicity (N-GP*) [1]	Diameter (nm) ([2]; Table 2b)	PDI ([2]; Table 2b)	% EE ([3]; Table 2b) [%]	Apparent pKa 95% CI [4]	Structure (SMILES)	Avg. hEPO Concentration (mIU/mL) ± Avg. SD (CD-1 mice) [mIU/mL]	Avg. hEPO Concentration (mIU/mL)* ± Avg. SD (CD-1 mice) [mIU/mL]
1.00	0.099	72.1	80.9	0.139	89.4	95.6	6.549	–	–	–	–	–	CCCCCCCCC(CCCCCCCC)OC(=O)CCCCCCCN(CCCCCCCC(=O)OCCC(CCCC)CCCC)CCCNS(=O)(=O)CCOC [Compound 3]	7.11E+06 ± 1.75E+05	–
–	–	–	84.6	0.194	–	54.1	–	1.05	94.5	0.198	45.9	6.676 to 6.749	CCCCCCCCC(CCCCCCCC)OC(=O)CCCCCCCN(CCCCCCCC(=O)OCCC(CCCC)CCCC)CCCNC(=O)C1(C)CC1 [Compound 4]	–	1.04E+07 ± 2.85E+05
1.02	0.073	67.2	83.1	0.166	93.4	96.0	6.536	–	–	–	–	–	CCCCCCCCC(CCCCCCCC)OC(=O)CCCCCCCN(CCCCCCCC(=O)OCCC(CCCC)CCCC)CCCNS(=O)(=O)CC [Compound 5]	1.04E+07 ± 2.49E+05	–
0.99	0.042	60.2	65.9	0.163	93.2	96.7	6.323	–	–	–	–	–	CCCCCCCCC(CCCCCCCC)OC(=O)CCCCCCCN(CCCCCCCC(=O)OCCC(CCCC)CCCC)CCCNS(=O)(=O)Cc1ccon1 [Compound 6]	5.41E+06 ± 6.06E+04	–
–	–	–	72.6	0.133	–	99.0	–	1.17	76.9	0.129	98.0	6.654 to 6.751	CCCCCCCCC(CCCCCCCC)OC(=O)CCCCCCCN(CCCCCCCC(=O)OCCC(CCCC)CCCC)CCCNc1ncccc1N [Compound 7]	–	1.04E+06 ± 2.04E+04
0.99	0.144	86.9	90.9	0.217	89.6	97.1	6.934	–	–	–	–	–	CCCCCC(CCCCC)CCOC(=O)CCCCCCCN(CCCCCCCC(=O)OCCC(CCCC)CCCC)CCCNc1n[s+]([O-])nc1NC (stereo not shown) [Compound 8]	4.95E+06 ± 1.24E+05	–
–	–	–	69.7	0.165	–	91.2	–	0.98	96.9	0.103	91.9	6.583 to 6.671	CCCCCC(CCCCC)CCOC(=O)CCCCCCCN(CCCCCCCC(=O)OCCC(CCCC)CCCC)CCCNc1noc(N)n1 [Compound 9]	–	1.84E+06 ± 2.44E+04
1.03	0.208	133.3	96.7	0.154	55.1	91.7	6.738	0.89	122.3	0.181	65.0	6.644 to 6.741	CCCCCC(CCCCC)CCOC(=O)CCCCCCCN(CCCCCCCC(=O)OCCC(CCCC)CCCC)CCCNS(=O)(=O)CCOC [Compound 10]	6.15E+06 ± 1.35E+05	–
–	–	–	117	0.262	–	34.3	–	1.01	200.1	0.199	18.2	6.906 to 6.961	CCCCCC(CCCCC)CCOC(=O)CCCCCCCN(CCCCCCCC(=O)OCCC(CCCC)CCCC)CCCNC(=O)C1(C)CC1 [Compound 11]	–	4.15E+06 ± 8.08E+04
1.04	0.248	120.2	109.2	0.155	80.9	94.1	6.669	–	–	–	–	–	CCCCCC(CCCCC)CCOC(=O)CCCCCCCN(CCCCCCCC(=O)OCCC(CCCC)CCCC)CCCNS(=O)(=O)CC [Compound 12]	5.83E+06 ± 1.13E+05	–
1.08	0.205	109.5	76.1	0.118	61.0	96.1	6.688	1.09	98.5	0.164	73.4	6.641 to 6.731	CCCCCC(CCCCC)CCOC(=O)CCCCCCCN(CCCCCCCC(=O)OCCC(CCCC)CCCC)CCCNS(=O)(=O)Cc1ccon1 [Compound 13]	1.41E+07 ± 2.72E+05	–
